Source: US8450357B2, “Compositions comprising an aryl pyrazole and/or a formamidine, methods and uses thereof” (Merial Limited, priority 2008, dated 2013)
Like-named read-outs stand apart in the source and are kept apart here.

Experiments:
[1] = tested on: adult Rhipicephalus sanguineus ticks; assay: whole plant or invertebrate
Method: Fipronil was dissolved in acetone containing 0.019% of a mixture of Triton 152 and Triton 172 (1:3, v/v) and 0.4% DMSO to achieve the desired concentration. Dosages were serially diluted using this same formulation. For treatments containing amitraz, amitraz was added to the above solution to achieve the desired concentration. 0.5 ml of the solution was used to treat 20 ml scintillation vials containing a 0.125″ hole in the cap. […] Filter papers treated with this same solution were placed in the cap and bottom of the treated vial. Vials were capped and held over night at 24° C. and 95% RH after which 10 adult Rhipicephalus sanguineus ticks were placed into each vial. The vials were held under the same conditions mentioned above for the duration of the test. […]

[2] = tested on: Ctenocephalides felis fleas; assay: Study C: flea efficacy of Compound 1 and fipronil alone and with amitraz in dogs; assay type: in vivo
Method: The effectiveness of Compound 1 alone, fipronil alone, Compound 1 in combination with amitraz, or fipronil in combination with amitraz, when administered once as topical solutions to dogs against induced infestations of Rhipicephalus sanguineus and Ctenocephalides felis were determined in a third clinical study. Thirty-six beagles (18 males and 18 females) were selected for the study. Six replicates of 6 animals each were formed. Treatment Group 1 dogs were treated with a placebo. Treatment Groups 2, 3, 4, 5 and 6 received their respective treatments as a topical spot-on application once on Day 0. Each formulation included diethyleneglycol monoethyl ether (transcutol) as carrier. The Treatment Groups were: Treatment Group 2: fipronil at 0.1 mL/kg body weight (10 mg/kg); Treatment Group 3: Compound 1 at 0.1 mL/kg (10 mg/kg) body weight; Treatment Group 4: Compound 1 at 0.2 mL/kg (20 mg/kg) body weight; Treatment Group 5: Compound 1 at 0.1 mL/kg (10 mg/kg) body weight plus amitraz at 0.04 mL/kg (8 mg/kg) body weight; Treatment Group 6: fipronil at 0.1 mL/kg (10 mg/kg) body weight plus amitraz at 0.04 mL/kg (8 mg/kg) body weight. Treatment was applied by parting the hair and applying the formulation(s) directly onto the skin on one spot at the midline of the neck, except for Groups 4, 5 and 6 which were applied in approximately equal volumes on two spots, one spot between the base of the skull and the shoulder blades and the other at the front of the shoulder blades.
All dogs were infested with approximately 50 Rhipicephalus sanguineus ticks on Days −1, 7, 14, 21, 28, 35, 42, 49 and 56. Dogs were also infested with approximately 100 Ctenocephalides felis fleas on Days −1, 8, 15, 22, 29, 36, 43, 50 and 57. Ectoparasites were removed and counted on Day 2, approximately 48 hours after treatment and on Days 9, 16, 23, 30, 37, 44, 51 and 58 approximately 24 hours after flea infestation and 48 hours after tick infestation. Tables 8 and 9 below show the % efficacy of formulations comprising fipronil at 0.1 ml/kg of body weight, Compound 1 at […], and fipronil and Compound 1 both at […] in combination with amitraz at 0.04 ml/kg of body weight compared to control group without active compounds. The percent reduction in flea counts of the treated groups with respect to the Control group over the study is shown in FIG. 14.

[3] = 4 h, read-out: 4 hour % Mortality Rep 1
[4] = 4 h, read-out: 4 hour % Mortality Rep 2
[5] = 4 h, read-out: 4 hour Avg. % Mortality
[6] = 24 h, read-out: 24 hour % Mortality Rep 1
[7] = 24 h, read-out: 24 hour % Mortality Rep 2
[8] = 24 h, read-out: 24 hour Avg. % Mortality
[9] = 48 h, read-out: 48 hour % Mortality Rep 1
[10] = 48 h, read-out: 48 hour % Mortality Rep 2
[11] = 48 h, read-out: 48 hour Avg. % Mortality

## Cc1ccc(/N=C/N(C)/C=N/c2ccc(C)cc2C)c(C)c1 [Amitraz, amitraz]
[1]; [3]
  mortality at 3.13 ppm: 0%
  mortality at 6.25 ppm: 0%
  mortality at 12.5 ppm: 0%
  mortality at 25 ppm: 0%
[1]; [4]
  mortality at 3.13 ppm: 0%
  mortality at 6.25 ppm: 0%
  mortality at 12.5 ppm: 0%
  mortality at 25 ppm: 0%
[1]; [5]
  mortality at 3.13 ppm: 0%
  mortality at 6.25 ppm: 0%
  mortality at 12.5 ppm: 0%
  mortality at 25 ppm: 0%
[1]; [6]
  mortality at 3.13 ppm: 0%
  mortality at 6.25 ppm: 0%
  mortality at 12.5 ppm: 0%
  mortality at 25 ppm: 0%
[1]; [7]
  mortality at 3.13 ppm: 0%
  mortality at 6.25 ppm: 0%
  mortality at 12.5 ppm: 0%
  mortality at 25 ppm: 0%
[1]; [8]
  mortality at 3.13 ppm: 0%
  mortality at 6.25 ppm: 0%
  mortality at 12.5 ppm: 0%
  mortality at 25 ppm: 0%
[1]; [9]
  mortality at 3.13 ppm: 0%
  mortality at 6.25 ppm: 0%
  mortality at 12.5 ppm: 0%
  mortality at 25 ppm: 0%
[1]; [10]
  mortality at 3.13 ppm: 0%
  mortality at 6.25 ppm: 0%
  mortality at 12.5 ppm: 0%
  mortality at 25 ppm: 0%
[1]; [11]
  mortality at 3.13 ppm: 0%
  mortality at 6.25 ppm: 0%
  mortality at 12.5 ppm: 0%
  mortality at 25 ppm: 0%

## Cc1c([S+]([O-])C(F)(Cl)Cl)c(C#N)nn1-c1c(F)cc(C(F)(F)F)cc1Cl (centres unmarked) [Compound 1, 3-cyano-1-(2-chloro-6-fluoro-4-trifluoromethylphenyl)-4-dichlorofluoromethylsulfinyl-5-methyl-1H-pyrazole]
[2]; Day 2, 10 mg/kg
  % Efficacy against fleas: 100%
[2]; Day 2, 20 mg/kg
  % Efficacy against fleas: 100%
[2]; Day 9, 10 mg/kg
  % Efficacy against fleas: 100%
[2]; Day 9, 20 mg/kg
  % Efficacy against fleas: 100%
[2]; Day 16, 10 mg/kg
  % Efficacy against fleas: 100%
[2]; Day 16, 20 mg/kg
  % Efficacy against fleas: 100%
[2]; Day 23, 10 mg/kg
  % Efficacy against fleas: 100%
[2]; Day 23, 20 mg/kg
  % Efficacy against fleas: 100%
[2]; Day 30, 10 mg/kg
  % Efficacy against fleas: 99.8%
[2]; Day 30, 20 mg/kg
  % Efficacy against fleas: 100%
[2]; Day 37, 10 mg/kg
  % Efficacy against fleas: 99.4%
[2]; Day 37, 20 mg/kg
  % Efficacy against fleas: 100%
[2]; Day 44, 10 mg/kg
  % Efficacy against fleas: 98.6%
[2]; Day 44, 20 mg/kg
  % Efficacy against fleas: 100%
[2]; Day 51, 10 mg/kg
  % Efficacy against fleas: 98.5%
[2]; Day 51, 20 mg/kg
  % Efficacy against fleas: 99.8%
[2]; Day 58, 10 mg/kg
  % Efficacy against fleas: 94.6%
[2]; Day 58, 20 mg/kg
  % Efficacy against fleas: 100%

## N#Cc1nn(-c2c(Cl)cc(C(F)(F)F)cc2Cl)c(N)c1[S+]([O-])C(F)(F)F (centres unmarked) [fipronil, 5-amino-3-cyano-1-(2,6-dichloro-4-trifluoromethylphenyl)-4-trifluoromethylsulfinylpyrazole]
[2]; Day 2, 10 mg/kg
  % Efficacy against fleas: 100%
[2]; Day 9, 10 mg/kg
  % Efficacy against fleas: 100%
[2]; Day 16, 10 mg/kg
  % Efficacy against fleas: 100%
[2]; Day 23, 10 mg/kg
  % Efficacy against fleas: 100%
[2]; Day 30, 10 mg/kg
  % Efficacy against fleas: 100%
[2]; Day 37, 10 mg/kg
  % Efficacy against fleas: 100%
[2]; Day 44, 10 mg/kg
  % Efficacy against fleas: 99.8%
[2]; Day 51, 10 mg/kg
  % Efficacy against fleas: 100%
[2]; Day 58, 10 mg/kg
  % Efficacy against fleas: 99.1%
[1]; [3]
  mortality at 0.025 ppm: 0%
  mortality at 0.1 ppm: 0%
  mortality at 0.4 ppm: 0%
  mortality at 1.6 ppm: 0%
  mortality at 6.25 ppm: 10%
  mortality at 25 ppm: 80%
[1]; [4]
  mortality at 0.025 ppm: 0%
  mortality at 0.1 ppm: 0%
  mortality at 0.4 ppm: 0%
  mortality at 1.6 ppm: 0%
  mortality at 6.25 ppm: 20%
  mortality at 25 ppm: 90%
[1]; [5]
  mortality at 0.025 ppm: 0%
  mortality at 0.1 ppm: 0%
  mortality at 0.4 ppm: 0%
  mortality at 1.6 ppm: 0%
  mortality at 6.25 ppm: 15%
  mortality at 25 ppm: 85%
[1]; [6]
  mortality at 0.025 ppm: 0%
  mortality at 0.1 ppm: 0%
  mortality at 0.4 ppm: 0%
  mortality at 6.25 ppm: 100%
  mortality at 25 ppm: 100%
[1]; [7]
  mortality at 0.025 ppm: 0%
  mortality at 0.1 ppm: 0%
  mortality at 0.4 ppm: 0%
  mortality at 1.6 ppm: 30%
  mortality at 6.25 ppm: 90%
  mortality at 25 ppm: 100%
[1]; [8]
  mortality at 0.025 ppm: 0%
  mortality at 0.1 ppm: 0%
  mortality at 0.4 ppm: 0%
  mortality at 1.6 ppm: 50%
  mortality at 6.25 ppm: 95%
  mortality at 25 ppm: 100%
[1]; [9]
  mortality at 0.025 ppm: 0%
  mortality at 0.1 ppm: 0%
  mortality at 0.4 ppm: 0%
  mortality at 1.6 ppm: 100%
  mortality at 6.25 ppm: 100%
  mortality at 25 ppm: 100%
[1]; [10]
  mortality at 0.025 ppm: 0%
  mortality at 0.1 ppm: 0%
  mortality at 0.4 ppm: 0%
  mortality at 1.6 ppm: 70%
  mortality at 6.25 ppm: 90%
  mortality at 25 ppm: 100%
[1]; [11]
  mortality at 0.025 ppm: 0%
  mortality at 0.1 ppm: 0%
  mortality at 0.4 ppm: 0%
  mortality at 1.6 ppm: 85%
  mortality at 6.25 ppm: 95%
  mortality at 25 ppm: 100%
